Several values for one entry are separate records, joined by “and”; a condition that tells them apart may be missing. Identical values can stand only once.
Assays:
Assay type in all cases: cell-based
[1] = test system: normal human epidermal keratinocytes (NHEK); test: Cytotoxicity on NHEK monolayer cultures (MTT reduction assay and morphological observation); conditions: for Viability (%): single values
Description: To determine the cytotoxicity of flavonoid-5-O-α-L-rhamnosides tests were performed versus their aglycon derivatives in cell monolayer cultures. For this purpose concentrations ranging from 1 μM to 250 μM were chosen. The viability of normal human epidermal keratinocytes (NHEK) was twice evaluated by a MTT reduction assay and morphological observation with a microscope. NHEK were grown at 37° C. and 5% CO2 aeration in Keratinocyte-SFM medium supplemented with epidermal growth factor (EGF) at 0.25 ng/mL, pituitary extract (PE) at 25 μg/mL and gentamycin (25 μg/mL) for 24 h and were used at the 3rd passage. For cytotoxicity testing, pre-incubated NHEK were given fresh culture medium containing a specific concentration of test compound and incubated for 24 h. After a medium change at same test concentration cells were incubated a further 24 h until viability was determined. Test results are given in Table B2 and illustrated in FIG. 10.

NF-κB = NF-κB activity in NIH3T3-KBF-Luc cells stimulated with TNFα (luciferase); conditions: for % Activation: TNFα alone = 100
Description: NIH3T3-KBF-Luc cells were stably transfected with the KBF-Luc plasmid (Sancho (2003) Mol Pharmacol 63:429-438), which contains three copies of NF-κB binding site (from major histocompatibility complex promoter), fused to a minimal simian virus 40 promoter driving the luciferase gene. Cells (1×10^4 for NIH3T3-KBF-Luc) were seeded the day before the assay on 96-well plate. Then the cells were treated with the test substances for 15 min and then stimulated with 30 ng/ml of TNFα. After 6 h, the cells were washed twice with PBS and lysed in 50 μl lysis buffer containing 25 mM Tris-phosphate (pH 7.8), 8 mM MgCl2, 1 mM DTT, 1% Triton X-100, and 7% glycerol during 15 min at RT in a horizontal shaker. Luciferase activity was measured using a GloMax 96 microplate luminometer (Promega) following the instructions of the luciferase assay kit (Promega, Madison, Wis., USA). […] The experiments for each concentration of the test items were done in triplicate wells.

HaCaT cells = test: Glucose uptake (2-NBDG) in HaCaT keratinocytes; set-up: key to Measure 1 / Measure 2 / Measure 3 / Mean: total green object integrated intensity, GCU×μm2×Well; conditions: +2NBDG 50 μM, 24 h; for Measure 1 / Measure 2 / Measure 3: HaCaT cells, fluorescence; for RFU specific: mean minus control; for Mean: mean of triplicate measurements; for % Glucose uptake: Rosiglitazone 80 μM = 100%
Description: HaCaT cells (5×10^4) were seeded in 96-well black plates and incubated for 24 h. Then, medium was removed and the cells cultivated in OptiMEM, labeled with 50 μM 2-NBDG (2-[N-(7-nitrobenz-2-oxa-1,3-diazol-4-yl) amino]-2-deoxy-D-glucose and treated with the test substances or the positive control, Rosiglitazone, for 24 h. Medium was removed and the wells were carefully washed with PBS and incubated in PBS (100l/well). Finally the fluorescence was measured using the Incucyte FLR software, the data were analyzed by the total green object integrated intensity (GCU×μm2×Well) of the imaging system IncuCyte HD (Essen BioScience). The fluorescence of Rosiglitazone is taken as 100% of glucose uptake, and the glucose uptake was calculated as (% Glucose uptake)=100(T−B)/(R−B), where T (treated) is the fluorescence of test substance-treated cells, B (Basal) is the fluorescence of 2-NBDG cells and […] is the fluorescence of cells treated with Rosiglitazone.

In the case of `O=C1CC(c2ccc(O)cc2)Oc2cc(O)cc(O)c21` (stereo not shown) [Naringenin, 4′,5,7-Trihydroxyflavanone], the “Viability (%) Mean” value ([1]; 1 μM) was 95%, the “Viability (%)” value ([1]; 1 μM) was 96% and 95% and the “Viability (%) Mean” value ([1]; 2.5 μM) was 93%. For the same molecule, the “Viability (%)” value ([1]; 2.5 μM) was 95% and 92%, the “Viability (%) Mean” value ([1]; 5 μM) was 92% and the “Viability (%)” value ([1]; 5 μM) was 93% and 91%. For the same molecule, the “Viability (%) Mean” value ([1]; 10 μM) was 95%, the “Viability (%)” value ([1]; 10 μM) was 95% and the “Viability (%) Mean” value ([1]; 25 μM) was 92%. For the same molecule, the “Viability (%)” value ([1]; 25 μM) was 89% and 94%, the “Viability (%) Mean” value ([1]; 50 μM) was 89% and the “Viability (%)” value ([1]; 50 μM) was 85% and 94%. The Morph. obs. ([1]; 100 μM) was “+/−, *”, the “Viability (%) Mean” value ([1]; 100 μM) was 75% and the “Viability (%)” value ([1]; 100 μM) was 76% and 74%. For the same molecule, the Morph. obs. ([1]; 250 μM) was “+/−, *”, the “Viability (%) Mean” value ([1]; 250 μM) was 47% and the “Viability (%) Mean” value ([1]; 250 μM, listed as naringenin) was “about 50%”. The “Viability (%)” value ([1]; 250 μM) was 48% and 47%.
With Chrysin-5-O-α-L-rhamnoside [CR2] the “RLU 1” value (NF-κB; 10 μM + 30 ng/ml TNFα) was 156600 RLU, the “RLU 2” value (NF-κB; 10 μM + 30 ng/ml TNFα) was 160140 RLU and the “RLU 3” value (NF-κB; 10 μM + 30 ng/ml TNFα) was 151070 RLU. The “RLU MEAN” value (NF-κB; 10 μM + 30 ng/ml TNFα) was 155937 RLU, the RLU specific (NF-κB; 10 μM + 30 ng/ml TNFα) was 132573 RLU and the “% Activation” value (NF-κB; 10 μM + 30 ng/ml TNFα) was 101.7%. The “RLU 1” value (NF-κB; 25 μM + 30 ng/ml TNFα) was 170390 RLU, the “RLU 2” value (NF-κB; 25 μM + 30 ng/ml TNFα) was 179220 RLU and the “RLU 3” value (NF-κB; 25 μM + 30 ng/ml TNFα) was 163490 RLU. The “RLU MEAN” value (NF-κB; 25 μM + 30 ng/ml TNFα) was 171033 RLU, the RLU specific (NF-κB; 25 μM + 30 ng/ml TNFα) was 147670 RLU and the “% Activation” value (NF-κB; 25 μM + 30 ng/ml TNFα) was 113.2%. For the same molecule, the “Measure 1” value (HaCaT cells; 25 μM test substance) was 427937, the “Measure 2” value (HaCaT cells; 25 μM test substance) was 431593 and the “Measure 3” value (HaCaT cells; 25 μM test substance) was 390512. For the same molecule, the RFU specific (HaCaT cells; 25 μM test substance) was 410367 RFU, the Mean (HaCaT cells; 25 μM test substance) was 416681 and the “% Glucose uptake” value (HaCaT cells; 25 μM test substance) was 47.2%. For the same molecule, the “Measure 1” value (HaCaT cells; 50 μM test substance) was 771478, the “Measure 2” value (HaCaT cells; 50 μM test substance) was 1100390 and the “Measure 3” value (HaCaT cells; 50 μM test substance) was 923151. For the same molecule, the RFU specific (HaCaT cells; 50 μM test substance) was 925359 RFU, the Mean (HaCaT cells; 50 μM test substance) was 931673 and the “% Glucose uptake” value (HaCaT cells; 50 μM test substance) was 106.5%.

— patent US20190100549A1, “FLAVONOIDE-TYPE COMPOUNDS BEARING AN O-RHAMNOSYL RESIDUE” (Universitaet Hamburg, priority 2016, published 2019)
